For this assay, the target named is Protein-arginine deiminase type-4 (Homo sapiens) (UniProt Q9UM07). As to the kind of experiment: PubChem AID 651867. The conditions noted are these: recombinant PAD4, BAEE citrulline colorimetric, time-dependent inactivation; at 10 µM; stronger effect = higher value.

The record followed here is PubChem BioAssay AID651867 (The Scripps Research Institute Molecular Screening Center, 2012).

The structures appear in SMILES notation.

What is called kinact/KI is the second-order rate constant of inactivation.

Protein-arginine deiminase type-4 (Homo sapiens), sequence (Q9UM07 whole entry, looked up): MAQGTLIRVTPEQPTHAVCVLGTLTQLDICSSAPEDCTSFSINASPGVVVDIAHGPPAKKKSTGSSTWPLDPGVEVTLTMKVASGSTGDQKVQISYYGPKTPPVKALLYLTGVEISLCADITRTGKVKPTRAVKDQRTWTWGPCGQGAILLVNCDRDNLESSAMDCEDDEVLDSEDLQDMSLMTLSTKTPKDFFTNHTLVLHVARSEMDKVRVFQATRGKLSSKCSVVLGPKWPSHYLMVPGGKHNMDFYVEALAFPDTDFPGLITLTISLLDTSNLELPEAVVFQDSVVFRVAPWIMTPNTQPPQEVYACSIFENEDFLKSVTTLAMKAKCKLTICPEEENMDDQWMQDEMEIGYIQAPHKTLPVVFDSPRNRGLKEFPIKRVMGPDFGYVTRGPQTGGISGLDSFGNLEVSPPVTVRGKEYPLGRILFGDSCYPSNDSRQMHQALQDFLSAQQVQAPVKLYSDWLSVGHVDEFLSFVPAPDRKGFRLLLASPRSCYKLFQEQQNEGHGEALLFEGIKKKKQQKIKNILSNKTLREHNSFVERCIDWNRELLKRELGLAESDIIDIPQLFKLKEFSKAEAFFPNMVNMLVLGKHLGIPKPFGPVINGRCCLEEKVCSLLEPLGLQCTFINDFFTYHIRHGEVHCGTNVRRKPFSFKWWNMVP

`NC1=CC(=O)c2ccc(-c3cccc(C(=O)O)n3)nc2C1=O`: the kinact/KI was 88.3 M⁻¹ s⁻¹.
